From publication PMC8042727, “Apoptosis-like cell death upon kinetoplastid induction by compounds isolated from the brown algae Dictyota spiralis” (Parasites & Vectors, 2021)

Columns and labels:
[1] = system: Leishmania amazonensis; test: ATP level (CellTiter-Glo); format: cell-based; details: L. amazonensis, IC90, 24 h, relative to negative control
Method: The CellTiter-Glo® luminescent cell viability assay (Promega, WI, USA) was used to quantify the adenosine triphosphate (ATP) concentration. Cells of the kinetoplastid strains (for both L. amazonensis [2 × 10^6 cells/ml] and T. cruzi [5 × 10^5cells/ml]) were incubated for 24 h with the compounds to be tested, at IC90 and 26 °C. After incubation, the cells were centrifuged and resuspended in 100 μl. To this volume, we added 100 μl of the reactive in white 96-well plates. After incubation, the luminescence signal was measured using the Enspire multimode plate reader. The decrease in ATP level was expressed as a percentage relative to the negative control. Miltefosine and benznidazole were tested as the positive control for L. amazonensis and T. cruzi, respectively.

[2] = system: Leishmania amazonensis promastigotes; test: DNA condensation assay (Hoechst 33342 / PI); format: cell-based; details: L. amazonensis promastigotes, IC90, 24 h
Method: Hoechst dye is a blue-fluorescent dye that stains condensed chromatin of apoptotic cells. To detect DNA condensation, the chromatin condensation/dead cell apoptosis kit was used (Invitrogen, Thermo Fisher Scientific, Waltham, MA, USA). Cells were incubated in the presence of the compounds to be tested at IC90. The IC90 values were determined using nonlinear regression of the AlamarBlue® curve. After 24 h of incubation, cells were harvested and resuspended in medium, following which 1 μl of Hoechst 33342 stock solution was added to parasites and incubated for 20 min. Results were analyzed by cell imaging using the Evos FL cell imaging system (Thermo Fisher Scientific). The experiments were repeated using a double-stain apoptosis detection kit (Hoechst 33342/PI; Thermo Fisher Scientific). […] A positive control was also tested: miltefosine (L. amazonensis) and benznidazole (T. cruzi).
DNA condensation is an important cellular event, providing evidence of apoptotic cell death. Hoechst dye is a blue-fluorescent dye that stains condensed chromatin. […] Also, using propidium iodine (PI), it is possible to distinguish dead cells, which stain red when PI penetrates the nucleus. The results of staining were evaluated using cell imaging. Different microscopy images are regrouped in Fig. 2 (for L. amazonensis) and Fig. 3 (for T. cruzi). […] A clear reduction in cell number is also evident.

Compound | loss of ATP concentration [1] | chromatin condensation / cell death stage (Hoechst/PI staining) [2]
C=C1CC[C@@H]([C@@](C)(O)CCC=C(C)C)[C@@H](O)[C@@H]2C(C)=CC[C@@H]12 [Compound 2, dictyol E] | 26.6% | late apoptotic stage
C=C(C)[C@H]1CC[C@]2(C)C[C@@H]3O[C@@]3(C)CC/C=C(\C)CC[C@@H]12 [Compound 3, 3,4-epoxy-7,18-dolabelladiene] |  | late apoptotic stage
